According to patent publication US5705693A, “Cationic lipids” (Gilead Sciences, Inc., priority 1995, dated 1998):

Assays:
[1] = system: cells; assay: Amount of fluorescently labeled oligonucleotide delivered versus commercially available lipids; type: cell-based; details: observed fluorescence intensity, estimated
Excerpt: The difference in transfection efficiency between lipids described herein and commercially available lipids is usually most pronounced when the transfections are done in the presence of medium containing serum. The amount of polyanion delivered into cells was estimated to be about 2- to 100-fold greater for lipids 30, 34 and 35 based on the observed fluorescence intensity of transfected cells after transfection using a fluorescently labeled oligonucleotide. The cationic lipids described herein also transfect some cell types that are not detectably transfected by commercial lipids, particularly where the transfection is conducted in the presence of serum.

[2] = system: CV-1 cells; assay: Transfection of CV-1 cells with five 35:DOPE preparations (Example 20); type: cell-based, African green monkey; details: 35:DOPE 2:1, 1 μg lipid, 6 h, 10% FBS; in words
Description: Lipid complexes consisting of 35:DOPE (2:1 molar ratio) were prepared as follows. Two molar equivalents of 35 in CHCl3 and one equivalent of DOPE in CHCl3 was dried under reduced pressure by rotovap at room temperature. Deionized water was then added to give 1 mg/mL of total lipid. 10 mL of water containing 10 mg of lipid was vortexed for 5 minutes in a 100 mL round bottom flask. 2 mL aliquots were then used to prepare lipid suspensions for complexing with ODN1. The first preparation was obtained by directly using the vortexed 2 mL aliquot to prepare complexes with ODN1. The second preparation was obtained by 6 cycles of freezing on dry ice and thawing in a 37° C. water bath (Baxter, Dura Bath). The third preparation was obtained by placing a culture tube containing the lipid into a Ultra Sonik 100 (NEY) sonicator and the preparation was sonicated for 30 minutes at room temperature using the probe tip at maximum power. The fourth preparation was obtained by 6 cycles of freezing on dry ice and thawing in a 37° C. water bath, followed by filtering the suspension through a Lipofast™ 100 nm filter according to the manufacturer's instructions to obtain complexes less than about 100 nm in diameter. The fifth preparation was obtained by sonication for 10 minutes in a sonication bath followed by 5 sonication pulses for 15 seconds each with a probe sonicator (Sonifier 250, Branson Ultrasonics). […]

[3] = system: cdc-2 kinase; assay: cdc-2 antisense oligonucleotide analog transfection, Western blot (Example 22); type: cell-based, African green monkey; details: 30 nM cdc-2 antisense oligonucleotide analog, 2.5 and 5.0 μg lipid
Excerpt: The oligonucleotide contained 5-(1-propynyl)cytosine in place of cytosine and 5-(1-propynyl)uracil in place of uracil. A control oligonucleotide analog having a mismatched base sequence was also used to check for any non-specific effect on cdc-2 kinase levels in the transfected cells caused by the oligonucleotide analog. A control containing only lipid was also used as a control. […] Protein levels were examined by Western blot analysis.

[4] = Transfection of CV-1 cells with ODN1 and toxicity (Example 22); type: cell-based, African green monkey; details: monkey, cv-1 cells; 10.0 μg lipid
Description: (§1) Lipids 35, 52, 54 and 55 were each prepared using a 2:1 lipid:DOPE molar ratio as follows. Two molar equivalents of each lipid in CHCl3 and one equivalent of DOPE in CHCl3 was dried under reduced pressure by rotovap at room temperature. Deionized water was then added to give 1 mg/mL of total lipid. 10 mL of water containing 10 mg of lipid was vortexed for 5 minutes in a 100 mL round bottom flask. 2 mL aliquots were then used to prepare lipid suspensions for complexing with ODN1. Each preparation was obtained by 6 cycles of freezing on dry ice and thawing in a 37° C. water bath.

[5] = system: CV-1 cells; assay: as above; type: cell-based, African green monkey; details: for % cells transfected: 2:1 DOPE, 6 h, 10% FBS, 250 pmole ODN1
Description: as §1

CCCCCCCCCCCCCCN(CCCCCCCCCCCCCC)C(=O)CNC(=O)[C@@H](N)CCCNC(=N)NC(=O)OC(C)(C)C [Compound 35]
amount of polyanion delivered into cells relative to commercially available lipids [1]: 2- to 100 fold
transfection of CV-1 cells, all preparations [2]: efficiently transfected CV-1 cells
cdc-2 protein levels [3]: efficiently reduced cdc-2 protein levels
cytotoxicity at 6 h [4]: > 40%
% cells transfected ([5]; 1 μg lipid): 40%
% cells transfected ([5]; 2.5 μg lipid): 85%
% cells transfected ([5]; 5.0 μg lipid): 100%
% cells transfected ([5]; 10.0 μg lipid): 60%
uniformity of cell staining ([5]; footnote, in words): relatively uniformly stained
